Assay results reported in patent publication EP4635944A1, “2-AZABICYCLO[3.1.1]HEPTANE COMPOUND” (Daiichi Sankyo Company, Limited, priority 2022, dated 2024).

molecular target: T1, human OX2R (Homo sapiens, UniProt O43614); test: Evaluation of OX2R agonist activity (intracellular calcium, CHO-K1 cells with forced expression of human OX2R); type: cell-based; settings: CHO-K1 cells expressing human OX2R; 100% = 5 µM of the reference compound; read-out: hOX2R EC50
T1 construct: host or cells: CHO-K1 (Chinese Hamster Ovary K1)
T1 sequence (O43614 1-444): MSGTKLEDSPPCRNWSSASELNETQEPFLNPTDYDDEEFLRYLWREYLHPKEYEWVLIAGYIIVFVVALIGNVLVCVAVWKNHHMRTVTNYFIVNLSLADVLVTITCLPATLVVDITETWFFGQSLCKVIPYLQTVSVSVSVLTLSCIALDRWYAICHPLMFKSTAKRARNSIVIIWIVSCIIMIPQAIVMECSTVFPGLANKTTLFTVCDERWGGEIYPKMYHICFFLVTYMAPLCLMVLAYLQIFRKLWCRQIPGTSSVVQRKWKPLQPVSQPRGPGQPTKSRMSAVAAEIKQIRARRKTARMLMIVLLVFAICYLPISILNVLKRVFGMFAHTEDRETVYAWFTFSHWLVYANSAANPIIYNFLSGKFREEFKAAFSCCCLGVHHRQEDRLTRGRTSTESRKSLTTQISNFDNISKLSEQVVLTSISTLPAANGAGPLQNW
Description: Evaluation of OX2R agonist activity
Chinese Hamster Ovary K1 (CHO-K1) cells (GenScript) with forced expression of human OX2R were seeded onto a 384 well microplate (Corning) at 7500 cells/well and cultured for 24 hours. 20 µL of the loading buffer (25 mM HEPES containing 1.25 mM of Probenecid and 2.5 µg/mL of Fluo 4-AM at final concentration, Hank's balanced salt solution, 0.06% Pluronic F-127, Quenching buffer) in the Calcium Kit II (DOJINDO LABORATORIES) was added, and the microplate was allowed to stand for 30 minutes. A reference compound (Example435 of WO 2019/027058, N-[(2S,3S)-2-[[3-(3,5-difluorophenyl)-2-fluoro-phenyl]methyl]-1-(2-hydroxy-2-methylpropanoyl)pyrrolidin-3-yl]ethanesulfonamide) or the test compound was added in 10 µL, and changes in intracellular calcium ion concentration were measured using FDSS7000EX (Hamamatsu Photonics K.K.) as a fluorescence intensity ratio obtained upon dual wavelength excitation at 480 nm and 540 nm. Note that the reference compound or test compound was dissolved in DMSO (final concentration of DMSO was 0.5%) and diluted with an assay buffer (20 mM HEPES, Hank's balanced salt solution, 0.1% BSA). The difference between the maximum and minimum fluorescence values between 5 and 7 seconds after the addition of the test compound or reference compound was used as the indicator. The value of wells to which the assay buffer containing no test compound was added was defined as 0%, and the value of wells to which 5 µM of the reference compound was added was defined as 100%. The 50% effective concentration (EC50 value) was determined from the values obtained when various concentrations of the test compound were added. […]

| SMILES | EC50 |
| --- | --- |
| CS(=O)(=O)N[C@H]1C2CC(C2)N(C(=O)C2(CO)CC2)[C@H]1Cc1cccc(-c2ccccc2)c1F [Example 73, N-[(3S,4S)-3-[(2-Fluoro[biphenyl]-3-yl)methyl]-2-{[1-(hydroxymethyl)cyclopropyl]carbonyl}-2-azabicyclo[3.1.1]heptan-4-yl]methanesulfonamide] | 50 nM |
| CS(=O)(=O)N[C@@H]1[C@H](Cc2cc(F)cc(-c3ccccc3)c2F)N(C(=O)[C@H](O)C(F)(F)F)C2CC1(F)C2 [Example 79, N-{(3S,4R)-3-[(2,5-Difluoro[biphenyl]-3-yl)methyl]-5-fluoro-2-[(2S)-3,3,3-trifluoro-2-hydroxypropanoyl]-2-azabicyclo[3.1.1]heptan-4-yl}methanesulfonamide] | 40 nM |
| CC(C)(O)C(=O)N1C2CC(F)(C2)C(NS(C)(=O)=O)C1Cc1cccc(-c2cccc(Cl)c2)c1F (single isomer, unassigned) [Example 61, N-[(3S,4R)-3-[(3'-Chloro-2-fluoro[biphenyl]-3-yl)methyl]-5-fluoro-2-(2-hydroxy-2-methylpropanoyl)-2-azabicyclo[3.1.1]heptan-4-yl]methanesulfonamide or N-[(3R,4S)-3-[(3'-chloro-2-fluoro[biphenyl]-3-yl)methyl]-5-fluoro-2-(2-hydroxy-2-methylpropanoyl)-2-azabicyclo[3.1.1]heptan-4-yl]methanesulfonamide] | 40 nM |
| CS(=O)(=O)N[C@@H]1[C@H](Cc2cccc(-c3ccccc3)c2F)N(C(=O)c2ccon2)C2CC1(F)C2 (single isomer, unassigned) [Example 84] | 231 nM |
| CC(C)(O)C(=O)N1C2CC(C2)[C@H](NS(C)(=O)=O)[C@@H]1Cc1cccc(-c2cccc(Cl)n2)c1F [Example 21, N-[(3S,4S)-3-[3-(6-Chloropyridin-2-yl)-2-fluorobenzyl]-2-(2-hydroxy-2-methylpropanoyl)-2-azabicyclo[3.1.1]heptan-4-yl]methanesulfonamide] | 217 nM |
| CC(C)(O)C(=O)N1C2CC(C2)C(NS(=O)(=O)CF)C1Cc1cccc(-c2cc(F)cc(F)c2)c1F (single isomer, unassigned) [Example 6, 1-Fluoro-N-{2-(2-hydroxy-2-methylpropanoyl)-3-[(2,3',5'-trifluoro[biphenyl]-3-yl)methyl]-2-azabicyclo[3.1.1]heptan-4-yl}methanesulfonamide] | 69 nM |
| CS(=O)(=O)N[C@H]1C2CC(C2)N(C(=O)[C@H](O)CF)[C@H]1Cc1cccc(-c2ccccc2)c1F [Example 75, N-{(3S,4S)-3-[(2-Fluoro[biphenyl]-3-yl)methyl]-2-[(2S)-3-fluoro-2-hydroxypropanoyl]-2-azabicyclo[3.1.1]heptan-4-yl}methanesulfonamide] | 78 nM |
| COc1cccc(-c2cccc(C[C@H]3[C@@H](NS(C)(=O)=O)C4CC(C4)N3C(=O)C(C)(C)O)c2F)c1 (stereo in doubt) [Example 14, N-[(3S,4S)-3-[(2-Fluoro-3'-methoxy[biphenyl]-3-yl)methyl]-2-(2-hydroxy-2-methylpropanoyl)-2-azabicyclo[3.1.1]heptan-4-yl]methanesulfonamide] | 298 nM |
| CS(=O)(=O)N[C@@H]1[C@H](Cc2cccc(-c3ccccc3)c2F)N(C(=O)[C@H]2CCO2)C2CC1(F)C2 [Example 70, N-{(3S,4R)-5-Fluoro-3-[(2-fluoro[biphenyl]-3-yl)methyl]-2-[(2R)-oxetan-2-ylcarbonyl]-2-azabicyclo[3.1.1]heptan-4-yl}methanesulfonamide] | 26 nM |
| CC(C)(O)C(=O)N1C2CC(C2)[C@H](NS(C)(=O)=O)[C@@H]1Cc1cccc(-c2cccc(F)c2F)c1F [Example 8, N-{(3S,4S)-2-(2-Hydroxy-2-methylpropanoyl)-3-[(2,2',3'-trifluoro[biphenyl]-3-yl)methyl]-2-azabicyclo[3.1.1]heptan-4-yl}methanesulfonamide] | 83 nM |
| CS(=O)(=O)N[C@H]1C2CC(C2)N(C(=O)[C@H]2CCCO2)[C@H]1Cc1cccc(-c2cc(F)cc(F)c2)c1F [Example 17, N-{(3S,4S)-2-[(2R)-Tetrahydrofuran-2-ylcarbonyl]-3-[(2,3',5'-trifluoro[biphenyl]-3-yl)methyl]-2-azabicyclo[3.1.1]heptan-4-yl}methanesulfonamide] | 108 nM |
| C[C@@H](O)C(=O)N1C2CC(C2)[C@H](NS(C)(=O)=O)[C@@H]1Cc1cccc(-c2cc(F)cc(F)c2)c1F [Example 16, N-{(3S,4S)-2-[(2R)-2-Hydroxypropanoyl]-3-[(2,3',5'-trifluoro[biphenyl]-3-yl)methyl]-2-azabicyclo[3.1.1]heptan-4-yl}methanesulfonamide] | 11 nM |
| CS(=O)(=O)N[C@@H]1[C@H](Cc2cccc(-c3ccccc3)c2F)N(C(=O)c2cocn2)C2CC1(F)C2 [Example 55, N-[(3S,4R)-5-Fluoro-3-[(2-fluoro[biphenyl]-3-yl)methyl]-2-(1,3-oxazol-4-ylcarbonyl)-2-azabicyclo[3.1.1]heptan-4-yl]methanesulfonamide] | 591 nM |
| CN(C)S(=O)(=O)N[C@H]1C2CC(C2)N(C(=O)C(C)(C)O)[C@H]1Cc1cccc(-c2cc(F)cc(F)c2)c1F (single isomer, unassigned) [Example 2] | 89 nM |
| CC(C)(O)C(=O)N1C2CC(F)(C2)[C@H](NS(C)(=O)=O)[C@@H]1Cc1cccc(-c2cccc(C(F)F)c2)c1F [Example 49, N-[(3S,4R)-3-{[3'-(Difluoromethyl)-2-fluoro[biphenyl]-3-yl]methyl}-5-fluoro-2-(2-hydroxy-2-methylpropanoyl)-2-azabicyclo[3.1.1]heptan-4-yl]methanesulfonamide] | 20 nM |
| CS(=O)(=O)N[C@@H]1[C@H](Cc2cccc(-c3ccccc3)c2F)N(C(=O)C2(O)CC2)C2CC1(F)C2 [Example 71, N-{(3S,4R)-5-Fluoro-3-[(2-fluoro[biphenyl]-3-yl)methyl]-2-[(1-hydroxycyclopropyl)carbonyl]-2-azabicyclo[3.1.1]heptan-4-yl}methanesulfonamide] | 39 nM |
| CS(=O)(=O)N[C@H]1C2CC(C2)N(C(=O)[C@@H]2C[C@H]2F)[C@H]1Cc1cccc(-c2cc(F)cc(F)c2)c1F [Example 30, N-{(3S,4S)-2-{[(1S,2R)-2-Fluorocyclopropyl]carbonyl}-3-[(2,3',5'-trifluoro[biphenyl]-3-yl)methyl]-2-azabicyclo[3.1.1]heptan-4-yl}methanesulfonamide] | 148 nM |
| C[C@@H](O)C(=O)N1C2CC(C2)[C@H](NS(C)(=O)=O)[C@@H]1Cc1cccc(-c2cccc(C(F)F)c2)c1F [Example 24, N-{(3S,4S)-3-{[3'-(Difluoromethyl)-2-fluoro[biphenyl]-3-yl]methyl}-2-[(2R)-2-hydroxypropanoyl]-2-azabicyclo[3.1.1]heptan-4-yl}methanesulfonamide] | 15 nM |
| CC(=O)N1C2CC(F)(C2)[C@H](NS(C)(=O)=O)[C@@H]1Cc1cccc(-c2cccc(Cl)c2)c1F [Example 46, N-{(3S,4R)-2-Acetyl-3-[(3'-chloro-2-fluoro[biphenyl]-3-yl)methyl]-5-fluoro-2-azabicyclo[3.1.1]heptan-4-yl}methanesulfonamide] | 106 nM |
| CC(C)C(=O)N1C2CC(C2)[C@H](NS(C)(=O)=O)[C@@H]1Cc1cccc(-c2ccccc2)c1F [Example 57, N-[(3S,4S)-3-[(2-Fluoro[biphenyl]-3-yl)methyl]-2-(2-methylpropanoyl)-2-azabicyclo[3.1.1]heptan-4-yl]methanesulfonamide] | 38 nM |
| CCS(=O)(=O)NC1C2CC(C2)N(C(=O)N(C)C)C1Cc1cccc(-c2cc(F)cc(F)c2)c1F (single isomer, unassigned) [Example 7, 4-[(Ethylsulfonyl)amino]-N,N-dimethyl-3-[(2,3',5'-trifluoro[biphenyl]-3-yl)methyl]-2-azabicyclo[3.1.1]heptane-2-carboxamide] | 213 nM |
| COCC(=O)N1C2CC(C2)[C@H](NS(C)(=O)=O)[C@@H]1Cc1cccc(-c2cc(F)cc(F)c2)c1F [Example 28, N-{(3S,4S)-2-(Methoxyacetyl)-3-[(2,3',5'-trifluoro[biphenyl]-3-yl)methyl]-2-azabicyclo[3.1.1]heptan-4-yl}methanesulfonamide] | 247 nM |
| CC(C)(F)C(=O)N1C2CC(F)(C2)[C@H](NS(C)(=O)=O)[C@@H]1Cc1cccc(-c2ccccc2)c1F (single isomer, unassigned) [Example 85] | 275 nM |
